{
  "source": "PubChem BioAssay AID602237",
  "about": "(National Center for Advancing Translational Sciences (NCATS), 2012)",
  "system": "aqueous kinetic solubility, PBS pH 7.4, LC-UV/MS",
  "experiment": "qHTS for Activators of Human alpha-Glucosidase as a Potential Chaperone Treatment of Pompe Disease: Aqueous Solubility",
  "details": "stronger effect = higher value",
  "description": "Alpha-glucosidase is responsible for hydrolysis of terminal, non-reducing 1,4-linked alpha-D-glucose residues with release of alpha-D-glucose. It is a lysosomal hydrolase that is required for the degradation of a small percentage (1-3%) of cellular glycogen in human. Deficiency of this enzyme results in glycogen-storage disease type II (GSDII), also referred to as Pompe disease, an autosomal recessive disorder. Structurally normal glycogen is accumulated in lysosomes and cytoplasm in affected patients, primarily in muscle tissues. Excessive glycogen storage within lysosomes may interrupt normal functioning of other organelles and leads to cellular injury. In turn, this leads to enlargement and dysfunction of the entire organ involved (eg, cardiomyopathy and muscle weakness). It has reported that the improper folding and trafficking of alpha-glucosidase resulting from the genetic mutations may account for a significant number of Pompe patients. […]\n1. […] Concentration of the supernatant was determined by LC-UV or LC-MS/MS […]",
  "data": [
    {"smiles": "CCCN1CNc2c(c(=O)[nH]c(=S)n2Cc2ccc(OC)c(OC)c2)C1", "values": [
      {"measurement": "solubility", "value": 289, "unit": "µM"}
    ]}
  ]
}
